Experiment [1] concerns the target T1, TMEM97 (108-176) (Homo sapiens, UniProt Q5BJF2).
T1 construct: Three peptides, TMEM97 (108-176), TMEM97 (108-143) and TMEM97 (144-176), were synthesized; made in house; host or cells: chemical solid-phase synthesis (Fmoc, Wang resin)
Briefly: Isothermal titration calorimetry, TMEM97 (108-176). It counts as binding. Particulars: ITC. On the procedure:
Isothermal Titration Calorimetry (ITC). The three synthesized peptides, TMEM97 (108-176), TMEM97 (108-143) and TMEM97 (144-176) were prepared in ITC buffer (10 mM Tris, pH 7.4, 150 mM NaCl, 0.05% polysorbate 20) at 40 μM concentration and placed in the sample cell. All ITC experiments were performed while stirring at 395 rpm, in ITC buffer at 25° C. using a VP-ITC titration microcalorimeter from MicroCal™, LLC (Northampton, Mass.). The microsyringe was loaded with a Histatin 1 solution (500 μM in ITC buffer). All titrations were conducted using an initial injection of 2.5 μL followed by 35 identical injections of 5 μL with a duration of 16 seconds (per injection) and a spacing of 210 seconds between injections. The buffer control titration (Histatin 1 into buffer) signals were subtracted from the experimental data. The collected data were evaluated using NITPIC (NIH), SEDPHAT (NIH), and GUSSI (NIH).
To determine more precisely which segment of TMEM97 is necessary for binding of Hst1, multiple synthetic fragments of TMEM97 were generated (Table 6) and binding to Hst1 was tested using SPR. […] Smaller fragments of the C-terminal of TMEM97 were then constructed to represent the (predicted) luminal (108-143) and cytoplasmic (144-176) exposed segments of the C-terminus of TMEM97 based on modeling experiments previously described. […]
Background: ITC needs no label: the signal is the heat of the interaction.

In experiment [2] the target is T2, Synthetic TMEM97 (108-176) (Homo sapiens, UniProt Q5BJF2).
T2 construct: Three peptides, TMEM97 (108-176), TMEM97 (108-143) and TMEM97 (144-176), were synthesized; made in house; host or cells: chemical solid-phase synthesis (Fmoc, Wang resin)
T2 sequence (Q5BJF2 108-176): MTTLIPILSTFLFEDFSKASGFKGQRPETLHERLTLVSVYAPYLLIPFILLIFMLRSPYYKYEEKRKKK
Briefly: Surface plasmon resonance, immobilized synthetic TMEM97 (108-176). Particulars: SPR. It counts as binding. Here is the method: Surface Plasmon Resonance (SPR). Recombinant full-length TMEM97 (also called MAC30, from HEK293 cells) and GST-TMEM97 (108-176, recombinant GST-C terminal from wheat germ) proteins were purchased from OriGene (Rockville, Md.) and Abnova (Taipei City, Taiwan), respectively. Three peptides, TMEM97 (108-176), TMEM97 (108-143) and TMEM97 (144-176), were synthesized. All proteins and peptides were initially prepared in HBS buffer containing 10 mM HEPES, pH 7.4, 150 mM NaCl, and 0.05% surfactant P20. The CM5 sensor surface was first activated by 1-ethyl-3-(3-dimethylaminopropyl) carbodiimide hydrochloride (EDC)/N-hydroxy succinimide (NHS) mixture using a Biacore T200 or Biacore 8K instrument (GE Healthcare). […] Flow channels 1 and 3 were used as references.
The three synthesized peptides were diluted to 50 μg/mL in 10 mM sodium acetate at pH 4.0 and immobilized to flow channels 2, 3 and 4, respectively, on another sensor chip. The unmodified surfaces on a flow channel 1 were used as a reference control. Histatin solutions with a series of increasing concentrations (0.78-25 μM at 2-fold dilution) were applied to all four channels at a 30 μL/minute flow rate at 25° C. The data were double-referenced with reference channel and zero concentration responses, and reference subtracted sensorgrams were fitted with 1 to 1 Langmuir kinetic model using a Biacore T200 evaluation software V3.0 or Insight evaluation software. The equilibrium dissociation constants ([…]) were determined from two rate constants (KD=kd/ka).
To determine more precisely which segment of TMEM97 is necessary for binding of Hst1, multiple synthetic fragments of TMEM97 were generated (Table 6) and binding to Hst1 was tested using SPR. […] Smaller fragments of the C-terminal of TMEM97 were then constructed to represent the (predicted) luminal (108-143) and cytoplasmic (144-176) exposed segments of the C-terminus of TMEM97 based on modeling experiments previously described. […] SPR results for Hst1 were confirmed using ITC as an orthogonal analytical method.
To determine the region(s) of Hst1 that mediate binding to TMEM97, SPR testing was performed with various Hst1 fragments and either recombinant TMEM97 (GST-tagged, wheat-germ derived, C-terminal fragment TMEM97 (108-176)) or synthesized TMEM97 (TMEM97 (108-176), TMEM97 (108-143) and TMEM97 (144-176)).

The target in experiment [3] is TMEM97 (Homo sapiens, UniProt Q5BJF2). Briefly: ELISA on plates coated with TMEM97. It counts as binding. On the procedure:
A co-immunoprecipitation (co-IP) assay was performed to determine if the interaction between Hst1 and TMEM97 was reproducible at the cellular level. […] These bands may represent monomeric and dimeric versions of Hst1 and are similar to what has been seen with western blot analyses of Hst1 containing samples. […] Enzyme-linked immunosorbent assay (ELISA) were also conducted to detect bound Hst1 on plates coated with TMEM97.
For orientation: An ELISA detects its analyte on a solid surface through an enzyme-linked reagent.

The target of experiment [4] is T3, TMEM97 (S2R) containing HEK293T membranes (Homo sapiens, UniProt Q5BJF2).
T3 construct: expressed in transfected cells; host or cells: HEK293T (transient overexpression; membranes prepared by UNC PDSP)
As to the kind of experiment: Radioligand binding/competition assay with [3H]-DTG (UNC PDSP). To be noted: secondary radioligand binding assay; hot ligand [3H]-DTG.

The structures appear in SMILES notation. Square brackets hold non-standard residues; d marks the D form. Peptide text beside a SMILES is read from it. pS = N[C@@H](COP(=O)(O)O)C(=O)O

For orientation: Kd means the equilibrium constant for the complex coming apart. The low end stands for higher affinity, the high end for lower affinity. Broadly, the Ki is a dissociation constant, usually derived from enzyme kinetics or from competition with a known ligand.

TMEM97, sequence (Q5BJF2 whole entry, species assumed): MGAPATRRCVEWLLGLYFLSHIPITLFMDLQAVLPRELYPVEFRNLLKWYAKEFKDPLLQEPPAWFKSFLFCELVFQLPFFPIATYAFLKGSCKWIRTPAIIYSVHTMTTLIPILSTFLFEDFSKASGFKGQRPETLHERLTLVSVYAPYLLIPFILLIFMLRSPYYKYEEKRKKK
T1 sequence (Q5BJF2 108-176): as the sequence (Q5BJF2 108-176) above

In turn, `CC(C)C[C@H](NC(=O)[C@H](Cc1ccc(O)cc1)NC(=O)[C@H](CC(N)=O)NC(=O)[C@H](CO)NC(=O)CNC(=O)[C@H](Cc1ccc(O)cc1)NC(=O)[C@H](CC(=O)O)NC(=O)CNC(=O)[C@H](Cc1ccc(O)cc1)NC(=O)[C@H](Cc1ccccc1)NC(=O)[C@@H]1CCCN1C(=O)[C@H](Cc1ccccc1)NC(=O)[C@H](CCC(=O)O)NC(=O)[C@H](CCCNC(=N)N)NC(=O)[C@H](Cc1c[nH]cn1)NC(=O)[C@H](CO)NC(=O)[C@H](Cc1c[nH]cn1)NC(=O)[C@H](Cc1c[nH]cn1)NC(=O)[C@H](CCCCN)NC(=O)[C@H](CCC(=O)O)NC(=O)[C@H](Cc1c[nH]cn1)NC(=O)[C@H](Cc1ccccc1)NC(=O)[C@H](CCCCN)NC(=O)[C@H](CCCNC(=N)N)NC(=O)[C@H](CCCNC(=N)N)NC(=O)[C@H](Cc1ccc(O)cc1)NC(=O)CNC(=O)[C@H](Cc1c[nH]cn1)NC(=O)[C@H](Cc1c[nH]cn1)NC(=O)[C@H](CCCNC(=N)N)NC(=O)[C@H](CCCCN)NC(=O)[C@H](CCC(=O)O)NC(=O)[C@H](Cc1c[nH]cn1)NC(=O)[C@H](COP(=O)(O)O)NC(=O)[C@@H](N)CC(=O)O)C(=O)N[C@@H](Cc1ccc(O)cc1)C(=O)N[C@@H](CC(=O)O)C(=O)N[C@@H](CC(N)=O)C(=O)O` [Hst1] (H-D[pS]HEKRHHGYRRKFHEKHHSHREFPFYGDYGSNYLYDN-OH; N-terminus and C-terminus assumed) came in with a ΔS in experiment [1] of 11.6±3.4 cal/mol K. The Kd in experiment [1] (25° C.) was 890 ± 200 nM; in experiment [2], 2400 nM. For the same compound, the figures for the “% Rmax” value in experiment [2] and in experiment [2] (listed as Hst1(1-38)) were 38% and “(% Rmax = 23%)”, respectively. Besides, in experiment [3], the “binding to TMEM97 in ELISA” value is “confirmed binding”. In addition, the “effect of DTG on Hst1 binding in ELISA” value in experiment [3] (addition of 1,3-Di-o-tolylguanidine (DTG)) is given as “did not alter”. The same compound came in with a Ki in experiment [4] of 239 nM.

Values taken from patent US20230190870A1, “Method for Treating Lysosomal Storage Diseases with Histatin Peptides” (THE BOARD OF TRUSTEES OF THE UNIVERSITY OF ILLINOIS, priority 2020, published 2023).
